Laboratory results as given in US20250270549A1, “MSI2 AS A THERAPEUTIC TARGET FOR THE TREATMENT OF MYOTONIC DYSTROPHY” (UNIVERSITAT DE VALÈNCIA, priority 2021, published 2025).
l = locked nucleic acid (LNA); d = 2'-deoxy (DNA)

How the values were obtained:
MSI2 transcripts = test: MSI2 relative expression (transcripts) by RT-qPCR in muscle cells; type: cell-based, H. sapiens
Method: (§1) TDMs were cultured as previously described^1. After 4 days in differentiation medium (MDM), cells were transfected with a combination of two siRNAs (SEQ ID NO: 40 and 43) targeting MSI2 transcripts (final concentration 100 nM) using Lipofectamine RNAiMAX transfection reagent (Invitrogen, Madrid, Spain)) following the manufacturer's recommendations. After 48 h, the medium containing the siRNAs was replaced by fresh MDM. 24 h later, cells were collected. As a control, the same protocol was performed using 100 nM of a siRNA with a scrambled sequence (Cat #4390843 for negative control). Gapmers against MSI2 and agomiR-107 were transfected following the same protocol using two different concentrations, 30 and 150 nM in the case of Gapmers and 100 and 300 nM in the case of agomiR-107. To treat cells with the small molecule Ro-08-2750 (Tocris Cat. No. 2272, Bristol, UK)), cells were cultured as before. Briefly, after 96 h in MDM, the medium was supplemented with Ro-08-2750 at a final concentration of 10 μM (0.8% DMSO) or with the vehicle, DMSO 0.8%, for 48 h. Then cells were collected for further analyses.
(§2) All the procedures were performed as previously described^1.

LC3 = LC3 immunostaining and LC3 puncta quantification; type: cell-based, human; conditions: DM1 TDMs; compared to scrambled ASO at the same concentration
Method: For LC3B immunodetection, cells were differentiated in MDM for 7 days (3×10^5 cells/well in 24-well plates). After 48 h of gapmer treatment, cells were fixed with 4% PFA in PBS for 15 min at room temperature. After fixation, cells were permeabilized with methanol 100% for 15 min at −20° C. and blocked with blocking buffer (PBS 1×, 0.5% BSA, 1% goat serum) for 1 h at room temperature. Cells were incubated overnight (O/N) with rabbit anti-LC3B (1:200, ab51520; Abcam, Cambridge, UK) diluted in blocking buffer. Then, samples were incubated with goat anti-rabbit IgG (H+L) Alexa Fluor Plus 594 (1:200; Invitrogen, Carlsbad, CA, USA) for 2 h. Between antibodies, cells were washed three times with PBS 1×. Finally, cells were washed three times with PBS and mounted in Vectashield (Vector Laboratories, London, UK) with […] DAPI.
Image analyses of LC3-stained myotubes were performed using the Ifdotmeter software following the authors' recommendations (see Rodríguez-Arribas, M., et al. (2016). IFDOTMETER: A New Software Application for Automated Immunofluorescence Analysis. J. Lab. Autom. 21, 246-259). Briefly, the quantification of the number of LC3 dots or LC3 puncta was performed with 15-20 images per condition. Total LC3 dots per image were normalized relative to the total area corresponding to all myotubes observed in each image. Myotube area was measured by using ImageJ software. Data were expressed as the number of LC3 dots/mm2.

AKT = AKT pathway activation: phospho (Ser473)-AKT-to-total-AKT ratio; type: cell-based, human; conditions: DM1 TDMs; 150 nM
Method: (§3) FIG. 10. Inhibition of MSI2 expression in DM1 TDMs restores impaired autophagic markers. (A) qRT-PCR quantification of the relative expression of the indicated genes involved in different autophagy pathway steps in DM1 and control (green dashed lines) myotubes. Statistical analyses were performed comparing DM1 versus controls. (B) Analyses of the expression of genes quantified in (A) in DM1 myotubes treated with ASOs targeting MSI2 transcripts. All comparisons for the statistical analyses were performed using their corresponding scrambled control (dashed lines). […] Quantification and representative western blots of (C) ATG4A, (D) ATG7, (E) AKT-P/AKT total protein levels, and (F) LC3-II/LC3-I ratio in DM1 TDMs treated with MSI2 targeting or scrambled ASOs at the indicated concentrations. Green dashed lines indicate protein expression levels in control myotubes. β-actin was used as an endogenous control to normalize protein levels (n=3). The bar graphs show mean #SEM. * p<0.05, ** p<0.01, *** p<0.001, and **** p<0.0001 according to Student's t test.
Protein extraction, quantification and immunodetection were performed as previously described^1,3. Specifically, MSI2 detections were performed by incubating membranes overnight with a rabbit anti-MSI2 antibody (1:1000, Abcam, EP1305Y, Cambridge, UK). […] Quantification was performed using ImageJ software (NIH).

TGFBR1 = TGFBR1 expression by RT-qPCR in MD1 muscle cells; type: cell-based, H. sapiens; conditions: DM1 TDMs; 150 nM
Method: as §1, §2

[1] = system: ATG3, ATG4A, ATG5, ATG7, and mTOR; test: qRT-PCR of autophagy pathway genes in DM1 TDMs; type: cell-based, human; conditions: highest concentration (150 nM)
Method: as §3, §2

MD1 TDMs = test: Desmin immunostaining: myogenic fusion index and myotube diameter; type: cell-based, human; conditions: MD1 myotubes; 30 nM
Method: as §1
Desmin immunostaining and fusion index and diameter determination were performed as previously described^3. For MSI2 immunodetection, 3.5×10^4 fibroblasts/well were seeded in 24 well plates. After 7 days of differentiation into myotubes, cells were fixed with 4% paraformaldehyde (PFA) for 15 min. After 3 washes with PBS-T (0.1%×-TritonX-100 in PBS 1×) cells were blocked (PBS-T, 1% BSA, 5% normal goat serum) for 1 h and incubated with rabbit anti-MSI2 antibody (1:100, Abcam, EP1305Y, Cambridge, UK) in blocking buffer for 48 h at 4° C. After three washes with PBS-T, cells were incubated for 1 h with goat anti-rabbit-FITC IgG (1:200, Sigma-Aldrich, St. Louis, Missouri) in blocking buffer. Finally, cells were washed thrice with PBS 1× and were counterstained and mounted with VECTASHIELD® mounting medium containing DAPI (Vector Laboratories, London, UK) to detect the nuclei. Images were taken in a confocal microscope LSM800 (Zeiss) at 400× magnification.

miR-7 = miR-7 quantification by RT-qPCR in MD1 cells; type: cell-based, human; conditions: MD1 cells, * significant
Method: as §1, §2

Method for Human CNT myotubes: (A) Cell growth inhibition assay by MTS method. Human CNT myotubes were transfected with increasing concentrations of ASO1, 2 and 3 (n=4). […] Vertical dashed lines indicate used concentrations in the following experiments: 30 and 150 nM.
Non-DM control (Ctrl) cells (CNT) were aliquoted in 96-well plates with 1.0×10^5 cells per well. After 24 h, cells were transfected as described with different ASOs (concentrations ranging from 1 nM to 1 μM) or treated with Ro-08-2750 (Tocris Bioscience, Bristol, UK) at concentrations ranging from 0.0195 up to 80 μM (in 1:2 serial dilutions). Cell viability was measured as previously described^3.

## ASO1: gapmer antisense oligonucleotide against MSI2 transcript, SEQ ID NO: 76 (38), 5′ +T+G+A*C*T*T*C*T*T*T*C*G*G+C+T+G 3′, LNA ends, phosphorothioate linkages (antisense TGACTTCTTTCGGCTG; sugars from the 5' end l3 d10 l3, backbone and methylation of C not given here; further chemistry not fully specified)
MSI2 transcripts; DM1 TDMs, 30 and 150 nM
  MSI2 relative expression upon transfection: significant reduction
MSI2 transcripts; MD1-derived myoblasts, 150 nM
  reduction of MSI2 transcript: 27%
LC3
  LC3 dots per unit of area: significant decrease
Human CNT myotubes
  TC10: 31.2 nM
AKT
  AKT-P/AKT ratio: robust increase
TGFBR1
  TGFBR1 expression: behaved the opposite
[1]
  ATG5 expression: significantly reduced
MD1 TDMs
  fusion capacity (fusion index and diameter): significant rescue
miR-7; ASO 30 nM, Ro 08-2750 10 μM, siRNA 100 nM
  FC miR-7 expression respect to MD1, Low concentration: 1.49 fold
miR-7; ASO 150 nM
  FC miR-7 expression respect to MD1, High concentration: 1.72* fold
